Literature values in patent US20110038852A1, “ANTIVIRALS THAT TARGET TRANSPORTERS, CARRIERS, AND ION CHANNELS” (3-V BIOSCIENCES, INC., priority 2009, published 2011).

Assays:
rhinoviral infections = settings: volunteers, clinical trials

Compound | side effects (rhinovirus infections; human, in vivo) | effect against rhinovirus infections (rhinovirus infections; used intranasally) | mucus secretions and illness-associated symptoms (rhinoviral infections)
Interferon-alpha | nasal bleeding | effective | 
Cc1cc(CCCOc2c(C)cc(-c3noc(C(F)(F)F)n3)cc2C)on1 [Pleconaril] |  |  | significant decrease
